From US9067941B2, “Fused heterocyclic azaindane carboxamide CGRP receptor antagonists” (Merck Sharp & Dohme Corp., priority 2010, dated 2015) come the findings set out here.

Structures are written as SMILES.

This assay deals with T1, recombinant human CL receptor/RAMP1 (Homo sapiens, UniProt O60894+Q16602).
T1 construct: expressed in transfected cells; membranes
T1 sequence (Q16602 23-461): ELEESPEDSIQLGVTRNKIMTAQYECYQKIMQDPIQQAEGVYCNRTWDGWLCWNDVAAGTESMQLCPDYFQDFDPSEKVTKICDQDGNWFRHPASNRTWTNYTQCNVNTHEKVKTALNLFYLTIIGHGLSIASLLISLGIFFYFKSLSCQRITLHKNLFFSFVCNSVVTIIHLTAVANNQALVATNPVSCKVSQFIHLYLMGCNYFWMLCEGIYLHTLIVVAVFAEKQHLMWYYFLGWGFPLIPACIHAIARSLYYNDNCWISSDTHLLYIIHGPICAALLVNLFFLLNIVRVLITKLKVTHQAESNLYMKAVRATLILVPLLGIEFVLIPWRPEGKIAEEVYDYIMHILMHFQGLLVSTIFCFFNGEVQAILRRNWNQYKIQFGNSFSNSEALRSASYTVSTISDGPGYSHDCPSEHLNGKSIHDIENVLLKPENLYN
T1 sequence (O60894 27-148): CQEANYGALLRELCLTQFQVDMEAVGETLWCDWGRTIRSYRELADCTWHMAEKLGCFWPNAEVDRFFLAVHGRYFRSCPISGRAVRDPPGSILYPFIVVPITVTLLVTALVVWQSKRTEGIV
Briefly: Recombinant receptor binding assay (125I-hCGRP displacement, membranes of HEK 293 cells). The following applies: 10 pM 125I-hCGRP, 3 h at room temperature. As for the experimental part:
RECOMBINANT RECEPTOR: Human CL receptor (Genbank accession number L76380) was subcloned into the expression vector pIREShyg2 (BD Biosciences Clontech) as a 5′NheI and 3′ PmeI fragment. Human RAMP1 (Genbank accession number A3001014) was subcloned into the expression vector pIRESpuro2 (BD Biosciences Clontech) as a 5′NheI and 3′NotI fragment. HEK 293 cells (human embryonic kidney cells; ATCC #CRL-1573) were cultured in DMEM with 4.5 g/L glucose, 1 mM sodium pyruvate and 2 mM glutamine supplemented with 10% fetal bovine serum (FBS), 100 units/mL penicillin and 100 μg/mL streptomycin, and maintained at 37° C. and 95% humidity. Cells were subcultured by treatment with 0.25% trypsin with 0.1% EDTA in HBSS. Stable cell line generation was accomplished by co-transfecting 10 μg of DNA with 30 μg Lipofectamine 2000 (Invitrogen) in 75 cm^2 flasks. CL receptor and RAMP1 expression constructs were co-transfected in equal amounts. Twenty-four hours after transfection the cells were diluted and selective medium (growth medium+300 μg/mL hygromycin and 1 μg/mL puromycin) was added the following day. A clonal cell line was generated by single cell deposition utilizing a FACS Vantage SE (Becton Dickinson). Growth medium was adjusted to 150 μg/mL hygromycin and 0.5 μg/mL puromycin for cell propagation.
RECOMBINANT RECEPTOR BINDING ASSAY: Cells expressing recombinant human CL receptor/RAMP1 were washed with PBS and harvested in harvest buffer containing 50 mM HEPES, 1 mM EDTA and Complete™ protease inhibitors (Roche). The cell suspension was disrupted with a laboratory homogenizer and centrifuged at 48,000 g to isolate membranes. The pellets were resuspended in harvest buffer plus 250 mM sucrose and stored at −70° C. For binding assays, 20 μg of membranes were incubated in 1 mL binding buffer (10 mM HEPES, pH 7.4, 5 mM MgCl2, and 0.2% BSA) for 3 h at room temperature containing 10 pM ^125I-hCGRP (GE Healthcare) and antagonist. The assay was terminated by filtration through 96-well GFB glass fiber filter plates (PerkinElmer) that had been blocked with 0.05% polyethyleneimine. The filters were washed 3 times with ice-cold assay buffer (10 mM HEPES, pH 7.4, and 5 mM MgCl2). Scintillation fluid was added and the plates were counted on a Topcount (Packard). Non-specific binding was determined and the data analysis was carried out with the apparent dissociation constant (Ki) determined by using a non-linear least squares fitting the bound CPM data to the equation below:
[formula] Where Y is observed CPM bound, Ymax is total bound counts, Ymin is non specific bound counts, (Ymax−Ymin) is specific bound counts, % Imax is the maximum percent inhibition, % I min is the minimum percent inhibition, radiolabel is the probe, and the Kd is the apparent dissociation constant for the radioligand for the receptor as determined by hot saturation experiments.
In the case of `C[C@@H]1[C@H](c2ccccc2)C[C@H](NC(=O)c2cnc3c(c2)C[C@@]2(C3)C(=O)Nc3ncncc32)c2ncc(C(C)(C)O)n21` [Example 2.1, (6S)—N-[(5R,6S,8S)-3-(2-Hydroxypropan-2-yl)-5-methyl-6-phenyl-5,6,7,8-tetrahydroimidazo[1,2-a]pyridin-8-yl]-6′-oxo-5,6′,7,7′-tetrahydrospiro[cyclopenta[b]pyridine-6,5′-pyrrolo[2,3-d]pyrimidine]-3-carboxamide], the Ki was determined as 560 pM.
With `COC(C)(C)c1cnc2n1C[C@H](c1cccc(F)c1F)C[C@@H]2NC(=O)c1cnc2c(c1)C[C@@]1(C2)C(=O)Nc2ncccc21` [Example 1.11, (6S)—N-[(6S,8S)-6-(2,3-Difluorophenyl)-3-(2-methoxypropan-2-yl)-5,6,7,8-tetrahydroimidazo[1,2-a]pyridin-8-yl]-2′-oxo-1′,2′,5,7-tetrahydrospiro[cyclopenta[b]pyridine-6,3′-pyrrolo[2,3-b]pyridine]-3-carboxamide], the Ki came out at 20 pM.
As to `C[C@@H]1[C@H](c2ccccc2)C[C@H](NC(=O)c2cnc3c(c2)C[C@@]2(C3)C(=O)Nc3ncccc32)c2ncc(CC(F)(F)F)n21` [Example 1.25], the Ki came to 60 pM.
On to `O=C(N[C@H]1C[C@@H](c2cccc(F)c2F)Cn2c(CC(F)(F)F)nnc21)c1cnc2c(c1)C[C@@]1(C2)C(=O)Nc2ncccc21` [Example 1.24, (6S)—N-[(6S,8S)-6-(2,3-Difluorophenyl)-3-(2,2,2-trifluoroethyl)-5,6,7,8-tetrahydro[1,2,4]triazolo[4,3-a]pyridin-8-yl]-2′-oxo-1′,2′,5,7-tetrahydrospiro[cyclopenta[b]pyridine-6,3′-pyrrolo[2,3-b]pyridine]-3-carboxamide], for which the Ki is 190 pM.
The figure for `C[C@@H]1[C@H](c2ccccc2)C[C@H](NC(=O)c2cnc3c(c2)C[C@@]2(C3)C(=O)Nc3ncccc32)c2ncc(C(C)(C)O)n21` [Example 1.26, (6S)—N-[(5R,6S,8S)-3-(2-Hydroxypropan-2-yl)-5-methyl-6-phenyl-5,6,7,8-tetrahydroimidazo[1,2-a]pyridin-8-yl]-2′-oxo-1′,2′,5,7-tetrahydrospiro[cyclopenta[b]pyridine-6,3′-pyrrolo[2,3-b]pyridine]-3-carboxamide] is 140 pM.
The figure for `C[C@@H]1[C@H](c2ccccc2)C[C@H](NC(=O)c2cnc3c(c2)C[C@@]2(C3)C(=O)Nc3ncccc32)c2nnc(C3(C(F)(F)F)CC3)n21` [Example 1.27, (6S)—N-{(5R,6S,8S)-5-Methyl-6-phenyl-3-[1-(trifluoromethyl)cyclopropyl]-5,6,7,8-tetrahydro[1,2,4]triazolo[4,3-a]pyridin-8-yl}-2′-oxo-1′,2′,5,7-tetrahydrospiro[cyclopenta[b]pyridine-6,3′-pyrrolo[2,3-b]pyridine]-3-carboxamide] is 360 pM; for `O=C(N[C@H]1C[C@@H](c2cccc(F)c2F)Cn2c(CC(F)(F)F)cnc21)c1cnc2c(c1)C[C@@]1(C2)C(=O)Nc2ncccc21` [Example 1.2, (6S)—N-[(6S,8S)-6-(2,3-Difluorophenyl)-3-(2,2,2-trifluoroethyl)-5,6,7,8-tetrahydroimidazo[1,2-a]pyridin-8-yl]-2′-oxo-1′,2′,5,7-tetrahydrospiro[cyclopenta[b]pyridine-6,3′-pyrrolo[2,3-b]pyridine]-3-carboxamide] it is 50 pM.

What is called Ki is a dissociation constant, usually derived from enzyme kinetics or from competition with a known ligand.
